Reference: patent US20140094451A1, “PREVENTIVE OR REMEDY FOR GLAUCOMA” (Kowa Co., Ltd., priority 2005, published 2014)

What was measured:
Japanese white rabbits = assay: Ocular hypotensive effect (IOP change from initial IOP) after instillation, alone or in combination; format: in vivo; details: FIG. 2; single drug treatment groups; instillation 50 μL, male JW rabbits
Method: To examine usefulness of combination use of a Rho kinase inhibitor and an α1 blocker, the ocular hypotensive effects were compared by administering either of these drugs alone or both in combination to laboratory animals. (S)-(−)-1-(4-fluoro-5-isoquinolinesulfonyl)-2-methyl-1,4-homopiperazine-hydrochloride dihydrate was dissolved in physiological saline, and the solution was neutralized (pH 6.0) by adding sodium dihydrogenphosphate and sodium hydroxide to prepare a (S)-(−)-1-(4-fluoro-5-isoquinolinesulfonyl)-2-methyl-1,4-homopiperazine solution at a desired concentration. The commercially available “Eril® S Injection” (Asahi Kasei Pharma) was used as it was. The commercially available “Detantol 0.01% Ophthalmic Solution” (Santen Pharmaceutical Co., Ltd.) was used as it was. The ocular hypotensive effect was examined after the combination use of (S)-(−)-1-(4-fluoro-5-isoquinolinesulfonyl)-2-methyl-1,4-homopiperazine and bunazosin. As a control, the ocular hypotensive effect was also examined after the use of bunazosin alone or (S)-(−)-1-(4-fluoro-5-isoquinolinesulfonyl)-2-methyl-1,4-homopiperazine alone. Similarly, the ocular hypotensive effect was examined after the combination use of hexahydro-1-(5-isoquinolinesulfonyl)-1H-1,4-diazepine and bunazosin. […]

rabbits with normal IOP = details: cited from earlier work

O=S(=O)(c1cccc2cnccc12)N1CCCNCC1 [hexahydro-1-(5-isoquinolinesulfonyl)-1H-1,4-diazepine]
time after instillation when the ocular hypotensive effect disappeared (Japanese white rabbits): 5 h

C[C@@H](N)c1ccc(C(=O)Nc2ccnc3[nH]ccc23)cc1 [Y-39983]
time after instillation from which IOP is lowered (rabbits with normal IOP): 1 h | time of maximum ocular hypotensive effect after instillation (rabbits with normal IOP): 2 to 4 h | maximum IOP reduction (rabbits with normal IOP; instillation, concentration of 0.10): 15 mmHg

CCCC(=O)N1CCCN(c2nc(N)c3cc(OC)c(OC)cc3n2)CC1 [bunazosin]
time after instillation when the ocular hypotensive effect disappeared (Japanese white rabbits): 5 h
